Key:
melanotic melanoma B16 = assay: Melanotic Melanoma B16 Test; type: in vivo, C57BC/6 mice
Protocol: The animals used were C57BC/6 mice, all of the same sex, weighing a minimum of 17 g and all within a 3 g weight range. There were normally 10 animals per test group. A 1.0 g portion of melanotic melanoma B16 tumor was homogenized in 10 ml of cold balanced salt solution and a 0.5 ml aliquot of the homogenate was implanted intraperitoneally into each of the test mice. The test compounds were administered intraperitoneally on days one through nine (relative to tumor inoculation) at various doses. The animals were weighed and survivors recorded on a regular basis for 60 days. The median survival time and the ratio of survival time for treated (T)/control (C) animals were calculated. The positive control compound was 1,4-dihydroxy-5,8-bis[[2-(2-hydroxyethylamino)-ethyl]amino]anthraquinone, dihydrochloride (U.S. Patent 4,197,249) given at the indicated doses by injection.

[1] = test system: lymphocytic leukemia P388; assay: Lymphocytic Leukemia P388 Test; type: in vivo, DBA/2 mice
Protocol: Lymphocytic Leukemia P388 Test
The animals used were DBA/2 mice all of one sex, weighing a minimum of 17 g and all within a 3 g weight range. There were 5 or 6 animals per test group. The tumor transplant was by intraperitoneal injection of 0.1 ml of dilute ascitic fluid containing 10^6 cells of lymphocytic leukemia P388. The test compounds were administered intraperitoneally on days 1, 5 and 9 (relative to tumor inoculation) at various doses. The animals were weighed and survivors were recorded on a regular basis for 30 days. The median survival time and the ratio of survival time for treated (T)/control (C) animals were calculated. The positive control compound was 1,4-dihydroxy-5,8-bis--[ [2-(2-hydroxyethylamino)ethyl ]amino]anthraquinone, dihydrochloride (U.S. Patent 4,197,249) given at the indicated doses by injection.

[2] = Dose 1.5 mg/kg intraperitoneally on days one through nine
[3] = Dose 6 mg/kg intraperitoneally on days one through nine
[4] = Dose 25 mg/kg intraperitoneally on days one through nine
[5] = Dose 100 mg/kg intraperitoneally on days one through nine
[6] = Dose 0.2 mg/kg intraperitoneally on days 1, 5 and 9
[7] = Dose 0.8 mg/kg intraperitoneally on days 1, 5 and 9
[8] = Dose 3 mg/kg intraperitoneally on days 1, 5 and 9
[9] = Dose 12 mg/kg intraperitoneally on days 1, 5 and 9
[10] = Dose 50 mg/kg intraperitoneally on days 1, 5 and 9

## CCOC(=O)NCCNc1ccc(NCCNC(=O)OCC)c2c1C(=O)c1c(O)ccc(O)c1C2=O [[(9,10-Dihydro-5,8-dihydroxy-9,10-dioxo-1,4 anthracenediyl)bis(imino-2,1-ethanediyl)]bis-[carbamic acid]diethyl ester]
Melanotic melanoma B16; [2]
  Median Survival: 29.5 days
  T/C x 100 (%): 156%
Melanotic melanoma B16; [3]
  Median Survival: 39.5 days
  T/C x 100 (%): 209%
Melanotic melanoma B16; [4]
  Median Survival: >60 days
  T/C x 100 (%): >317%
Melanotic melanoma B16; [5]
  Median Survival: 38.5 days
  T/C x 100 (%): 204%
[1]; [6]
  Median Survival: 11 days
  T/C x 100 (%): 110%
[1]; [7]
  Median Survival: 14 days
  T/C x 100 (%): 140%
[1]; [8]
  Median Survival: 17 days
  T/C x 100 (%): 170%
[1]; [9]
  Median Survival: 21 days
  T/C x 100 (%): 210%
[1]; [10]
  Median Survival: 21.5 days
  T/C x 100 (%): 215%
